The data set deals with female Wistar rats. Kind of data set: Paclitaxel-induced abnormal thermoesthesia, latent period for pseudo pain reactions (hot water bath 45° C.). In kind it is in vivo, rat. The note with it: paclitaxel alone. The method, then: Paclitaxel was intravenously administered at a dose of 6 mg/kg once daily to female Wistar rats (8 rats per group) (the initial dosage date was defined as day 0). Treatment was repeated five times every other day.
The efficacy of 2,2′-dithiobis ethane sulfonate on the abnormal thermoesthesia occurring in response to the paclitaxel therapy was assessed using, as an index, a latent period for pseudo pain reactions. […] Each pseudo pain reaction-related latent period was measured on the day before the initial paclitaxel dosage (day −1, pretreatment), and daily for three days from the next day after the final paclitaxel dosage (from days 9 to 11, post-treatment), i.e., totally four times.
2,2′-dithiobis ethane sulfonate was, dissolved in water for injection to make its concentration 200 mg/ml upon use and the 2,2′-dithiobis ethane sulfonate solution thus prepared was intravenously administered at the dose of 500 mg/kg or 1,000 mg/kg immediately before the paclitaxel administration.

SMILES strings stand for the structures.

As to `CC(=O)O[C@H]1C(=O)[C@@]2(C)[C@H]([C@H](OC(=O)c3ccccc3)[C@]3(O)C[C@H](OC(=O)[C@H](O)[C@@H](NC(=O)c4ccccc4)c4ccccc4)C(C)=C1C3(C)C)[C@]1(OC(C)=O)CO[C@@H]1C[C@@H]2O` [Paclitaxel, paclitaxel, reference compound], the latent period (day 9 post-treatment) worked out at 18.9 ± 1.4 s, the latent period (day 10 post-treatment) was determined as 19.9 ± 2.2 s, the latent period (day 11 post-treatment) came out at 19.4 ± 2.4 s and the latent period (prior to the initiation of paclitaxel administration (pretreatment)) was 9.4 ± 1.0 s. The “latent periods compared with control groups” value (p<0.01, student's t-test or Man-Whitney U-test) was “significantly elongated”.

(Values after patent US8710095B2, “Drugs for prophylaxis or mitigation of taxane-induced neurotoxicity” (Bionumerik Pharmaceuticals, Inc., priority 2002, dated 2014).)
